According to ChEMBL document CHEMBL5385859, “Research progress and challenges of TRPV1 channel modulators as a prospective therapy for diabetic neuropathic pain” (Eur J Med Chem, 2023):

Columns and labels:
[1] = molecular target: T1, Transient receptor potential cation channel subfamily V member 1 (Homo sapiens, UniProt Q8NER1); experiment: Antagonist activity at TRPV1 (unknown origin)
[2] = Lipophilicity, […] of the compound at pH 6.5; assay type: physicochemical; conditions: buffer
[3] = molecular target: T1, Transient receptor potential cation channel subfamily V member 1; experiment: Agonist activity at human TRPV1 overexpressed in HEK293 cells incubated for 1 hr by Fluo-4 AM dye based microscopic analysis; assay type: cell-based
[4] = Lipophilicity, log P of the compound in PBS buffer; assay type: physicochemical
[5] = molecular target: T1, Transient receptor potential cation channel subfamily V member 1; experiment: Antagonist activity at human recombinant TPRV1
[6] = molecular target: T1, Transient receptor potential cation channel subfamily V member 1; experiment: Activation of human TRPV1 expressed in HEK293F cells; assay type: cell-based
[7] = molecular target: T1, Transient receptor potential cation channel subfamily V member 1; experiment: Binding affinity to human TRPV1 assessed as inhibition constant by SPR analysis
Mus musculus [8] = species on record: Mus musculus; experiment: Analgesic activity in CCI-induced neuropathic pain in wild type C57BL/6 mouse model assessed as reduction in paw threshold pain measured after 2 hrs; assay type: functional
[9] = molecular target: T1, Transient receptor potential cation channel subfamily V member 1; experiment: Inhibition of TRPV1 (unknown origin)
Mus musculus [10] = experiment: Analgesic activity in CCI-induced neuropathic pain mouse model assessed as increase in mechanical paw withdrawal threshold at 5 mg/kg,ip administration measured after 30 mins by von frey test; assay type: functional, organism-based; conditions: 0.5 h

T1 sequence (Q8NER1 whole entry): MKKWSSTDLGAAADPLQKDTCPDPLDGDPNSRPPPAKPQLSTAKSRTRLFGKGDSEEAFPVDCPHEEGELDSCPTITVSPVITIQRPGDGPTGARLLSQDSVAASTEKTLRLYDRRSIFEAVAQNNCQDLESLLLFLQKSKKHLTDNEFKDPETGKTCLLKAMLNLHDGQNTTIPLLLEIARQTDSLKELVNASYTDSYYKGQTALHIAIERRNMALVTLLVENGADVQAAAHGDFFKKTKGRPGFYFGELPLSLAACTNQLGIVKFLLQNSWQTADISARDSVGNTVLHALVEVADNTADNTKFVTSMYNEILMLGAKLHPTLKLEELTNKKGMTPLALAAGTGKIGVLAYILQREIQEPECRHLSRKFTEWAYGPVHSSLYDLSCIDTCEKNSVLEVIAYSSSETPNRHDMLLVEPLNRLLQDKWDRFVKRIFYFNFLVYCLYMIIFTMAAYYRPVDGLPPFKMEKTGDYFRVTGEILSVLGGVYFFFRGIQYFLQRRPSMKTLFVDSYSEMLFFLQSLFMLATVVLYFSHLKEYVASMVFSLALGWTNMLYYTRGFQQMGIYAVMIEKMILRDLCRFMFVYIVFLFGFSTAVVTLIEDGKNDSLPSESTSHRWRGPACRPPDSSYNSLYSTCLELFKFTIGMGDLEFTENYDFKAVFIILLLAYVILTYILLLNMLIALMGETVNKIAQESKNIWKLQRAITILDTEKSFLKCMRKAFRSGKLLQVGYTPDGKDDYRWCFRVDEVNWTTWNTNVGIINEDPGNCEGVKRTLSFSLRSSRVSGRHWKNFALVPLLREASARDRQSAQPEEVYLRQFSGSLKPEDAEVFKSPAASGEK

CC(C)(C)c1ccc(CNC(=S)NCc2ccc(NS(C)(=O)=O)cc2)cc1
IC50 [1]: 0.11 nM

CC(C)(O)c1ccccc1-c1ccc2[nH]c(/C=C/c3ccc(C(F)(F)F)cc3)nc2c1
logD [2]: 6.27

COc1cc(C/N=C(\S)NCc2ccc(Cl)cc2)cc(I)c1O
IC50 [1]: 106 nM

CC(C)(C)c1ccc(CNC(=S)NCc2ccc(NS(C)(=O)=O)c(F)c2)cc1
IC50 [1]: 8 nM

O=C(Nc1ccc(C(F)(F)F)cn1)N1CC=C(c2ncc([C@H](O)CO)cc2Cl)CC1
logD [2]: 2.11

O=C(Nc1ccc(C(F)(F)F)cc1)N1CC=C(c2ncc([C@H](O)CO)cc2Cl)CC1
IC50 [3]: 33.8 nM

CC(C)=CCCC1(C)CC1CO (centres undefined)
logP [4]: 2.5

CCCc1nc(C(F)(F)F)ccc1/C=C/C(=O)N[C@H](C)c1cc(F)c(NS(C)(=O)=O)c(F)c1
logD [2]: 3.67

C[C@H](NC(=O)Cn1cnc2ccc(F)c(F)c21)c1ccc(C(C)(C)C)cc1
IC50 [5]: 5 nM
logD [2]: 4.34

CC(C)c1nc2cc(O)ccc2c(=O)n1-c1ccc(C#N)cc1
logD [2]: 3.45

O=C(Nc1cccc2cnccc12)N1CCC[C@H]1CNc1ccc(Br)cc1
IC50 [6]: 84 nM

CC(C)(C)C(=O)OCC(CNC(=S)NCc1ccc(NS(C)(=O)=O)c(F)c1)Cc1ccccc1 (centres undefined)
Ki [7]: 7.8 nM

CC(C)(C)c1ccc2c(c1)CC[C@H]2NC(=O)Nc1cccc2[nH]ncc12 [ABT-102]
logD [2]: 4.59

CC(=O)Nc1nc2c(Oc3cc(-c4ccc(C(F)(F)F)cc4)ncn3)cccc2s1 [AMG-517]
Activity (Mus musculus [8]): 760 nM

COc1cc(CNC(=O)CCCC/C=C/C(C)C)ccc1O [CAPSAICIN]
logP [4]: 3.74

Cc1ccc(N2c3cccc(C(=O)Nc4ccc(OCC(F)(F)F)nc4)c3OC[C@@H]2CO)nc1 [JTS-653]
IC50 [5]: 236 nM
logD [2]: 3.83

CC(C)c1cccc(C(C)C)c1O [PROPOFOL]
IC50 [9]: 5.05 nM
logP [4]: 4.15

C=C(C)[C@]12C[C@@H](C)[C@@]34O[C@](Cc5ccccc5)(O[C@@H]1[C@@H]3C=C(COC(=O)Cc1ccc(O)c(OC)c1)C[C@]1(O)C(=O)C(C)=C[C@@H]41)O2 [RESINIFERATOXIN]
EC50 (Mus musculus [10]): 920 nM

O=C(Nc1ccccc1Br)N[C@@H]1CCN(c2ccc(C(F)(F)F)cn2)C1 [SB-705498]
logD [2]: 3.98
Activity (Mus musculus [8]): 8.8 nM

CNCC1CCCCN1C(=O)Oc1ccc(CNC(=O)CCCC/C=C/C(C)C)cc1OC (centres undefined) [VOCACAPSAICIN]
logP [4]: 4.32
